In patent US20230381774A1, “MICROFLUDIC LAB-ON-CHIP DEVICE, MATRIX, SMALL MOLECULES AND THREE-DIMENSIONAL SPHEROIDS FOR CELL REPROGRAMMING” (The Regents of the University of California, priority 2022, published 2023):

How the values were obtained:
Type in all cases: cell-based, mouse
[1] = test system: 5-methylcytosine (5-mC); experiment: Global DNA methylation (5-mC) assay; conditions: non-transduced fibroblasts, 24 hours, vs control
Protocol: DNA was isolated from non-transduced fibroblasts treated with vehicle control (DMSO), 10 μM blebbistatin and 5 μM PF573228, respectively, for 24 hours using the PureLink Genomic DNA mini kit (Invitrogen) according to the manufacturer's instructions. To detect global DNA methylation (5-mC) levels in the samples, we utilized the MethylFlash Global DNA Methylation (5-mC) ELISA Easy kit (Epigentek) according to the manufacturer's protocol. 100 ng of DNA sample was utilized per reaction and after adding the color developer solution, the absorbance was measured using a plate reader (Infinite […], 30050303) at 450 nm.

[2] = test system: H3K4-specific histone demethylase (HDM); experiment: H3K4 HDM activity assay on nuclear extracts of treated fibroblasts; conditions: 10 μM blebbistatin or 5 μM PF573228, 2 hours, vs DMSO
Protocol: Nuclear protein extractions were isolated from 5×10^5 fibroblasts treated with vehicle control (DMSO), 10 μM blebbistatin or 5 μM PF573228 for 2 hours using a nuclear extraction kit (EpiGentek, OP-0002), in accordance with the manufacturer's instructions. HAT, HDAC, H3K4 HMT, H3K4 HDM and DNMT activity were measured using the HAT activity/inhibition assay (EpiGentek, P-4003-048), HDAC activity/inhibition assay (EpiGentek, P-4034-096), Histone methyltransferase (H3K4 specific) activity/inhibition assay (EpiGentek, P-3002-1), Histone Demethylase (H3K4 specific) activity/inhibition assay (EpiGentek, P-3074-48), and DNMT activity/inhibition assay (EpiGentek, P-3009-048), respectively. Per the manufacturer's instructions, 20 μg of nuclear extract was added into the assay wells and incubated at 37° C. for 90 minutes. After adding the color developer solution, the absorbance was measured using a plate reader (Infinite […], 30050303) at 450 nm for all the assays with the exception of the Histone Demethylase (H3K4 specific) activity/inhibition assay where we measured the fluorescence using a fluorescence microplate reader at 530 EX/590 EM nm.

[3] = test system: neuronal genes; experiment: qRT-PCR of neuronal gene expression; conditions: for neuronal gene expression at day 5: blebbistatin or 5 μM PF573228, vs non-treated transduced cells
Protocol: RNA was isolated from samples using Trizol® (Ambion) according to the manufacturer's instructions. For cDNA synthesis, 500 ng of RNA was reverse transcribed using Maxima First Strand cDNA Synthesis Kit (ThermoFisher Scientific). Template DNA was amplified using Maxima SYBR Green/Fluorescein qPCR Master Mix (ThermoFisher Scientific) on a CFX qPCR machine (Bio-Rad). qRT-PCR data were analyzed using CFX Manager 3.1 (Bio-Rad) and gene expression levels were normalized to 18S.

[4] = test system: histone marks; experiment: Immunofluorescence of histone marks in non-transduced fibroblasts; conditions: global; 10 μM blebbistatin or 5 μM PF573228, 2 hours, vs control
Protocol: For immunostaining, cells were fixed with 4% paraformaldehyde (Electron Microscopy Sciences), permeabilized with 0.5% Triton-X-100 (Sigma), and blocked with 5% donkey serum (Jackson Immunoresearch) in phosphate buffered saline (PBS). For actin-cytoskeleton staining, samples were incubated with fluorescein isothiocyanate-conjugated phalloidin (Invitrogen) for 1 hour. Primary antibodies were incubated for 1 hour at room temperature or overnight at 4° C., followed by 1-hour incubation with Alexa 488 and/or Alexa 546-labeled secondary antibodies (Molecular Probes). Nuclei were stained with 4,6-diamino-2-phenylindole (DAPI) (Invitrogen).
Quantification of histone intensity per nuclei was performed using an ImageJ macro. DAPI-stained nuclei were segmented using gaussian blur, thresholding, watershed, and analyze particle functions to identify individual nuclei. This mask was applied to the corresponding stained fluorescence channel to quantify the average fluorescence intensity within each nucleus.

[5] = test system: promoter or enhancer regions of neuronal and mesenchymal genes; experiment: ATAC-seq chromatin accessibility; conditions: 10 μM blebbistatin or 5 μM PF573228, 2 hours
Protocol: A total of 1,000,000 fibroblasts treated with vehicle control (DMSO), 10 μM blebbistatin or 5 μM PF573228 were collected after 2 hours and stored at −80° C. prior to sample processing. ATAC-seq was performed as described previously^47. In brief, frozen cells were thawed and washed once with PBS and then resuspended in 500 μL of cold PBS. The cell number was assessed by Cellometer Auto 2000 (Nexcelom Bioscience, Massachusetts, USA). 100,000 cells were then added to ATAC lysis buffer and centrifuged at 500 g in a pre-chilled centrifuge for 5 minutes. Supernatant was removed and the nuclei were resuspended in 50 μL of tagmentation reaction mix by pipetting up and down. The reactions were incubated at 37° C. for 30 minutes in a thermomixer with shaking at 1,000 r.p.m., and then cleaned up using the MiniElute reaction clean up kit (Qiagen). Tagmented DNA was amplified with barcoded primers. Library quality and quantity were assessed with Qubit 2.0 DNA HS Assay (ThermoFisher), Tapestation High Sensitivity D1000 Assay (Agilent Technologies), and QuantStudio® 5 System (Applied Biosystems). Equimolar pooling of libraries was performed based on QC values and sequenced on an Illumina® NovaSeq (Illumina, California, USA) with a read length configuration of 150 PE for [100]M PE reads (50M in each direction) per sample.
FASTQ files were trimmed with Trim Galore and cutadapt^48. Pair-ended reads were then aligned to the mouse reference genome (mm10) with Bowtie2^49. Mitochondrial reads and PCR duplicates were removed using SAMtools^50 and Picard (http://broadinstitute.github.io/picard/), respectively. Peaks were called over input using MACS3^51, and only peaks outside the ENCODE blacklist region were kept. All peaks from all samples were merged and featureCount^52 was used to count the mapped reads for each sample.

| Structure (SMILES) | DNA methylation (5-mC) [1] | H3K4-specific HDM activity [2] | neuronal gene expression at day 5 ([3]; BAM-transduced fibroblasts) | euchromatin marks (AcH3, H3K4me3, H3K4me1) [4] | heterochromatin marks (H3K27me3, H3K9me3) [4] | chromatin accessibility of mesenchymal genes [5] | chromatin accessibility of neuronal genes (Ascl1, Brn2, Myt1l, Tubb3) [5] | endogenous Brn2 and Myt1l expression ([3]; Ascl1-transduced fibroblasts) | expression of several neuronal genes including NeuroD1 ([3]; Ascl1-transduced fibroblasts) | Ascl1 expression at day 3 ([3]; BAM-transduced fibroblasts) | Brn2 and Myt1l expression at day 3 ([3]; BAM-transduced fibroblasts) |
| --- | --- | --- | --- | --- | --- | --- | --- | --- | --- | --- | --- |
| CS(=O)(=O)c1cccc(CNc2nc(Nc3ccc4c(c3)CCC(=O)N4)ncc2C(F)(F)F)c1 [PF573228] | lower levels of DNA methylation | differences | greater | global increases in AcH3, H3K3me3 and H3K4me1 marks | a concurrent decrease in H3K9me3 and H3K27me3 | slightly decrease the accessibility of mesenchymal genes | could increase the accessibility at the promoter or enhancer regions of neuronal genes |  |  |  |  |
| Cc1ccc2c(c1)C(=O)C1(O)CCN(c3ccccc3)C1=N2 (stereo not drawn) [blebbistatin] | a decrease in the abundance of DNA methylation marker, 5-methylcytosine (5-mC) | reduced | significantly increased | an increase in AcH3, H3K4me3, and H3K4me1 marks | decreased | slightly decreased the accessibility at the promoters or enhancer regions of some mesenchymal genes | could increase the accessibility at the promoter or enhancer regions of neuronal genes | upregulated the expression of endogenous Brn2 and Myt1l | higher | upregulated | did not show such a drastic increase in the expression level |
